From ChEMBL document CHEMBL1909046, “DrugMatrix in vitro pharmacology data”
pIC50, pKi: −log10 of the molar value.

Tests used:
[1] = DRUGMATRIX: GABAA, Muscimol, Central radioligand binding (ligand: [3H] Muscimol); type: cell membranes, Rattus norvegicus, Wistar, Brain, Membrane; conditions: Not Active = under 50% inhibition at 10 µM
Melanocortin receptor 4 = Melanocortin receptor 4 (Homo sapiens, UniProt P32245); type: cell membranes, HEK293, Membrane; conditions: hek293; also: in other assays of this panel Not Active means under 50% inhibition at 10 µM
Melanocortin receptor 4, sequence (P32245 whole entry): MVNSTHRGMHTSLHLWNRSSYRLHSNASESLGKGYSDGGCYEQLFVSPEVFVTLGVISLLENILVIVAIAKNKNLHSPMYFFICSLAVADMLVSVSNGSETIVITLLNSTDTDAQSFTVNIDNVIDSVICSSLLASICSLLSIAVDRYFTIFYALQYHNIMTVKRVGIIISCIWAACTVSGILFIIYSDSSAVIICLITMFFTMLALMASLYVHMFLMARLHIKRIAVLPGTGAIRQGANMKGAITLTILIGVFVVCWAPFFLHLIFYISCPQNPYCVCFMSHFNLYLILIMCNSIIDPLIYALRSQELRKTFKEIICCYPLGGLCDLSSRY

Mu-type opioid receptor = Mu-type opioid receptor (Homo sapiens, UniProt P35372); test: DRUGMATRIX: Opiate mu (OP3, MOP) radioligand binding (ligand: [3H] Diprenorphine); type: cell membranes, CHO-K1, Membrane; conditions: Not Active = under 50% inhibition at 10 µM; for IC50: cho-k1
Mu-type opioid receptor, sequence (P35372 whole entry): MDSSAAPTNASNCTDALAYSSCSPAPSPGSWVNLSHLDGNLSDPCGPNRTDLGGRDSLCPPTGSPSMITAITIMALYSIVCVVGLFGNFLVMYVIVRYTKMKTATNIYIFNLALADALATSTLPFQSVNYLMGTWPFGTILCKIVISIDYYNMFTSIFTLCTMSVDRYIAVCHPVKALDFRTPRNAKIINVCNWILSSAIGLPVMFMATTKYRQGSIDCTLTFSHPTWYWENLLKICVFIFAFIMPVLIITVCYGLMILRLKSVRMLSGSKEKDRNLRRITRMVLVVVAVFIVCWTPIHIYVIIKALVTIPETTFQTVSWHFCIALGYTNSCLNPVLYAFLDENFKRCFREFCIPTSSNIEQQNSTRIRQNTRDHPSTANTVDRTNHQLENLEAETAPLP

[2] = DRUGMATRIX: Potassium Channel [KATP] radioligand binding (ligand: [3H] Glyburide); type: cell membranes, Membrane; conditions: hit-t15; Not Active = under 50% inhibition at 10 µM
[3] = target: Mitogen-activated protein kinase 14 (Homo sapiens, UniProt Q16539); set-up: species or system Escherichia coli;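 also: inhibition of p38alpha enzyme activity in a biochemical kinase assay, with myelin basic protein serving as substrate; in other assays of this panel Not Active means under 50% inhibition at 10 µM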
Mitogen-activated protein kinase 14, sequence (Q16539 whole entry): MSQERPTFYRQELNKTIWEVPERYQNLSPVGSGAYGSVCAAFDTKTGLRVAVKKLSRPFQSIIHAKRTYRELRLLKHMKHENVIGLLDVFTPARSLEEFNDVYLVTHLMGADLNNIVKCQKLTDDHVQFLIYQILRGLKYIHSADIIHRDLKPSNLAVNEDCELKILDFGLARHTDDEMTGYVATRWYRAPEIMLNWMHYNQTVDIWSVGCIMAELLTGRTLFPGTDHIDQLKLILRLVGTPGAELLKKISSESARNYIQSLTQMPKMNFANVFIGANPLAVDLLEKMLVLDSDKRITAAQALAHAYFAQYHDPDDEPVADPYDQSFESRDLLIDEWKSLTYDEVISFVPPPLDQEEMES

[4] = target: T1, Neuropeptide Y receptor type 2 (Homo sapiens, UniProt P49146); type: cell membranes, Membrane; conditions: kan-ts; also: in other assays of this panel Not Active means under 50% inhibition at 10 µM
T1 sequence (P49146 whole entry): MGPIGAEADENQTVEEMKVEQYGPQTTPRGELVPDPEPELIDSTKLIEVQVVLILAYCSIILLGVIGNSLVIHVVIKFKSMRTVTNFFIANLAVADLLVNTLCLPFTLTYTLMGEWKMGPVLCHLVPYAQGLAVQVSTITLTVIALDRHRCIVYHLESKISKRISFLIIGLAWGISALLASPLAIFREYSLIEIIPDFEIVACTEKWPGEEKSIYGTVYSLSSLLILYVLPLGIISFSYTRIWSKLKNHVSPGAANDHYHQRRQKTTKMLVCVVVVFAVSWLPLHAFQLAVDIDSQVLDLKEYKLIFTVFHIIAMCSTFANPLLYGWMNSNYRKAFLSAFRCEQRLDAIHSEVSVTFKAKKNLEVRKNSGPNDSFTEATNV

D(4) dopamine receptor = target: T2, D(4) dopamine receptor (Homo sapiens, UniProt P21917); test: DRUGMATRIX: Dopamine D4.2 radioligand binding (ligand: [3H] Spiperone); type: cell membranes, CHO-K1, Membrane; conditions: cho-k1; Not Active = under 50% inhibition at 10 µM
T2 sequence (P21917 whole entry): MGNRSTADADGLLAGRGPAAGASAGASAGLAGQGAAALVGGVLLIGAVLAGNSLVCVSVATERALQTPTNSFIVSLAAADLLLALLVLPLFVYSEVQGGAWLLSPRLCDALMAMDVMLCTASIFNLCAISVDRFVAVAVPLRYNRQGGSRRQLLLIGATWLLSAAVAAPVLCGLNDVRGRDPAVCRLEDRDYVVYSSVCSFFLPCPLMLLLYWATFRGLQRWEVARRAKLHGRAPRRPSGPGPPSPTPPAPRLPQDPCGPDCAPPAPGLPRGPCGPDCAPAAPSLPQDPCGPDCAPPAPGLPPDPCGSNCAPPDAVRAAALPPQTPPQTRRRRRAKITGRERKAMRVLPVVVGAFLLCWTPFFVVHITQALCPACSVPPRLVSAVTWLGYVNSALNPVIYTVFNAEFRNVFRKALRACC

[5] = target: T3, Cysteinyl leukotriene receptor 1 (Homo sapiens, UniProt Q9Y271); type: cell membranes, CHO-K1, Membrane; conditions: cho-k1; also: in other assays of this panel Not Active means under 50% inhibition at 10 µM
T3 sequence (Q9Y271 whole entry): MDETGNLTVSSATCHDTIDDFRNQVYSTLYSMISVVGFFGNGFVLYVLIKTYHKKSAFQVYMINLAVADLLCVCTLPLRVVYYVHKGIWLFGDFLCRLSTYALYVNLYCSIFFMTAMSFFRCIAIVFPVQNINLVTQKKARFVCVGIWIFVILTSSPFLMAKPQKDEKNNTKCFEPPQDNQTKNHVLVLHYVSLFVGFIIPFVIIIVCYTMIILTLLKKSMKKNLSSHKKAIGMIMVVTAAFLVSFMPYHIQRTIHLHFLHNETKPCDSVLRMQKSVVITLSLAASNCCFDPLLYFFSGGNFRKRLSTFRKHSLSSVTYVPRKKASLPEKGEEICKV

Compound	IC50 [1]	Ki [1]	IC50 (Melanocortin receptor 4)	IC50 (Mu-type opioid receptor)	IC50 [2]	Ki [2]	IC50 [3]	IC50 [4]	IC50 (D(4) dopamine receptor)	IC50 [5]	pKi (Mu-type opioid receptor)	pIC50 (Mu-type opioid receptor; read-out: IC50)
C[C@H](CCC(=O)O)[C@H]1CC[C@H]2[C@@H]3[C@H](O)C[C@@H]4C[C@H](O)CC[C@]4(C)[C@H]3C[C@H](O)[C@]12C [CHOLIC ACID]	Not Active	Not Active	Not Active	Not Active	Not Active	Not Active	Not Active	Not Active	Not Active	Not Active		
CC(C)C(Br)C(=O)NC(N)=O (stereo unspecified) [BROMISOVALUM]	Not Active	Not Active	Not Active	Not Active	Not Active	Not Active	Not Active	Not Active	Not Active	Not Active		
C[C@H]1c2cccc(O)c2C(=O)C2=C(O)[C@]3(O)C(=O)C(C(N)=O)=C(O)[C@@H](N(C)C)[C@@H]3[C@@H](O)[C@@H]21.O [DOXYCYCLINE]	Not Active	Not Active	Not Active	Not Active	Not Active	Not Active	Not Active	Not Active	Not Active	Not Active		
CNCCCN1c2ccccc2CCc2ccccc21 [DESIPRAMINE]	Not Active	Not Active	Not Active	Not Active	Not Active	Not Active	Not Active	Not Active	Not Active	Not Active		
C[C@H](CS)C(=O)N1CCC[C@H]1C(=O)O [CAPTOPRIL]	Not Active	Not Active	Not Active	Not Active	Not Active	Not Active	Not Active	Not Active	Not Active	Not Active		
CC(O)CO (stereo unspecified) [PROPYLENE GLYCOL]	Not Active	Not Active	Not Active	Not Active	Not Active	Not Active	Not Active	Not Active	Not Active	Not Active		
Cc1c(O)c(=O)ccn1C [DEFERIPRONE]	Not Active	Not Active	Not Active	Not Active	Not Active	Not Active	Not Active	Not Active	Not Active	Not Active		
CC(C)[C@@]1(NC(=O)[C@@H]2C[C@@H]3c4cccc5[nH]cc(c45)C[C@H]3N(C)C2)O[C@@]2(O)[C@@H]3CCCN3C(=O)[C@H](Cc3ccccc3)N2C1=O.CS(=O)(=O)O [DIHYDROERGOCRISTINE MESYLATE]	Not Active	Not Active	Not Active		Not Active	Not Active	Not Active	Not Active	Not Active	Not Active	6.46	6.07
C1CCC(C(CC2CCCCN2)C2CCCCC2)CC1 (stereo unspecified) [PERHEXILINE]	Not Active	Not Active	Not Active	Not Active	Not Active	Not Active	Not Active	Not Active	Not Active	Not Active		
c1ccc2c(c1)c1cccc3ccc4cccc2c4c31 [BENZO[E]PYRENE]	Not Active	Not Active	Not Active	Not Active	Not Active	Not Active	Not Active	Not Active	Not Active	Not Active		
C[C@]12CC[C@@H]3c4ccc(O)cc4CC[C@H]3[C@@H]1CCC2=O [ESTRONE]	Not Active	Not Active	Not Active	Not Active	Not Active	Not Active	Not Active	Not Active	Not Active	Not Active		
CNCCc1ccccn1 [BETAHISTINE]	Not Active	Not Active	Not Active	Not Active	Not Active	Not Active	Not Active	Not Active	Not Active	Not Active		
Cc1ccccc1N1C(=O)c2cc(S(N)(=O)=O)c(Cl)cc2NC1C (stereo unspecified) [METOLAZONE]	Not Active	Not Active	Not Active	Not Active	Not Active	Not Active	Not Active	Not Active	Not Active	Not Active		
O=C1CC[C@@H](N2C(=O)c3ccccc3C2=O)C(=O)N1	Not Active	Not Active	Not Active	Not Active	Not Active	Not Active	Not Active	Not Active	Not Active	Not Active		
Nc1c(Br)cc(Br)cc1CN[C@H]1CC[C@H](O)CC1 [AMBROXOL]	Not Active	Not Active	Not Active	Not Active	Not Active	Not Active	Not Active	Not Active	Not Active	Not Active		
Nc1nc2c(ncn2COCCO)c(=O)[nH]1 [ACYCLOVIR]	Not Active	Not Active	Not Active	Not Active	Not Active	Not Active	Not Active	Not Active	Not Active	Not Active		
CN(C)CCCN1c2ccccc2Sc2ccccc21 [PROMAZINE]	Not Active	Not Active	Not Active	Not Active	Not Active	Not Active	Not Active	Not Active	Not Active	Not Active		
CC1(C)O[C@@H]2C[C@H]3[C@@H]4CCC5=CC(=O)CC[C@]5(C)[C@@]4(F)[C@@H](O)C[C@]3(C)[C@]2(C(=O)CCl)O1 [HALCINONIDE]	Not Active	Not Active	Not Active	Not Active	Not Active	Not Active	Not Active	Not Active	Not Active	Not Active		
CC1CC(OC(=O)C(O)c2ccccc2)CC(C)(C)C1 (stereo unspecified) [CYCLANDELATE]	Not Active	Not Active	Not Active	Not Active	Not Active	Not Active	Not Active	Not Active	Not Active	Not Active		
Sc1ncnc2nc[nH]c12 [MERCAPTOPURINE ANHYDROUS]	Not Active	Not Active	Not Active	Not Active	Not Active	Not Active	Not Active	Not Active	Not Active	Not Active		
O=c1[nH]c(=O)n([C@H]2C[C@H](O)[C@@H](CO)O2)cc1I [IDOXURIDINE]	Not Active	Not Active	Not Active	Not Active	Not Active	Not Active	Not Active	Not Active	Not Active	Not Active		
CC1(C)S[C@@H]2[C@H](NC(=O)Cc3ccccc3)C(=O)N2[C@H]1C(=O)O [PENICILLIN G]	Not Active	Not Active	Not Active	Not Active	Not Active	Not Active	Not Active	Not Active	Not Active	Not Active		
